Measured values: PubChem BioAssay AID623934 (Southern Research Specialized Biocontainment Screening …, 2012)
Active and inactive are the calls of the source. No rule for the calls is given here.

Tested on: not listed separately
Test: West Nile virus antiviral cytopathic protection, dose response, cell-based, EC_3 (AID 623934)
Settings: West Nile virus infected cells, antiviral cytopathic protection; at 50 µM (top of the series)

SMILES | inhibition
Cc1cc(-n2c(SCC(=O)c3nc(-c4ccccc4)cs3)nc3ccccc3c2=O)ccc1Cl | 3.94% (inactive)

Same assay, conditions: West Nile virus infected cells, antiviral cytopathic protection; at 100 µM (top of the series)

SMILES | inhibition
O=C(CSc1nc2c(F)cccc2c(=O)n1-c1ccc(Cl)c(Cl)c1)Nc1nc(-c2ccccc2)cs1 | 5.8% (inactive)
O=C(CSc1nc2ccccc2c(=O)n1-c1ccc(Cl)c(Br)c1)Nc1nc(-c2ccccc2)cs1 | 4.48% (inactive)
N#Cc1ccc(-n2c(SCC(=O)Nc3ccc4c(c3)CCC4)nc3ccccc3c2=O)cc1 | 8.15% (inactive)
Cc1cc(-n2c(SCC(=O)Nc3nc(-c4ccccc4)cs3)nc3ccccc3c2=O)ccc1F | 4.72% (inactive)
O=C(CSc1nc2ccccc2c(=O)n1-c1ccc(Cl)c(Cl)c1)Nc1ccc2c(c1)CCC2 | 24.8% (inactive)
O=C(CSc1nc2ccccc2c(=O)n1-c1cc(F)cc(F)c1)c1nc(-c2ccccc2)cs1 | 6.41% (inactive)
O=C(CSc1nc2ccccc2c(=O)n1-c1ccccn1)Nc1ccc2c(c1)CCC2 | 2.47% (inactive)
O=C(CSc1nc2cccc(F)c2c(=O)n1-c1ccc(Cl)c(Cl)c1)Nc1ccc2c(c1)CCC2 | 3.14% (inactive)
O=C(CSc1nc2cccc(F)c2c(=O)n1-c1cc(Br)c(F)cn1)Nc1ccc2c(c1)CCC2 | 3.79% (inactive)
O=C(CSc1nc2c(Cl)cccc2c(=O)n1-c1cc(Cl)cc(Cl)c1)Nc1nc(-c2ccccc2)cs1 | 5.19% (inactive)
Cc1cc(-n2c(SCC(=O)Nc3nc(-c4ccccc4)cs3)nc3ccccc3c2=O)ccc1Cl | 5.12% (inactive)
N#Cc1ccc(-n2c(SCC(=O)Nc3nc(-c4ccccc4)cs3)nc3ccccc3c2=O)cc1F | 5.78% (inactive)
O=C(CSc1nc2ccccc2c(=O)n1-c1c(Cl)cccc1Cl)c1nc(-c2ccccc2)cs1 | 3.02% (inactive)
Cc1cc(-n2c(SCC(=O)c3nc(-c4ccccc4)cs3)nc3ccccc3c2=O)ccc1F | 3.75% (inactive)
O=C(CSc1nc2c(Cl)cccc2c(=O)n1-c1cc(Cl)cc(Cl)c1)Nc1ccc2c(c1)CCC2 | 5.62% (inactive)
N#Cc1ccc(-n2c(SCC(=O)Nc3ccc4c(c3)CCC4)nc3ccccc3c2=O)cc1F | 2.03% (inactive)
O=C(CSc1nc2ccccc2c(=O)n1-c1ccc(Cl)c(Cl)c1)Nc1nc(-c2ccccc2)cs1 | 4.05% (inactive)
O=C(CSc1nc2ccccc2c(=O)n1-c1cc(F)cc(F)c1)Nc1nc(-c2ccccc2)cs1 | 3.67% (inactive)
N#Cc1ccc(-n2c(SCC(=O)c3nc(-c4ccccc4)cs3)nc3ccccc3c2=O)cc1 | 3.25% (inactive)
O=C(CSc1nc2ccccc2c(=O)n1-c1ccccn1)Nc1nc(-c2ccccc2)cs1 | 3.87% (inactive)
Cc1ccc(-n2c(SCC(=O)c3nc(-c4ccccc4)cs3)nc3ccccc3c2=O)cc1Br | 4.12% (inactive)
O=C(CSc1nc2c(F)cccc2c(=O)n1-c1ccccc1)Nc1nc(-c2ccccc2)cs1 | 3.49% (inactive)
O=C(CSc1nc2ccccc2c(=O)n1-c1ccc(Cl)c(F)c1)Nc1ccc2c(c1)CCC2 | 7.41% (inactive)
O=C(CSc1nc2c(F)cccc2c(=O)n1-c1cc(Cl)cc(Cl)c1)Nc1nc(-c2ccccc2)cs1 | 3.92% (inactive)
O=C(CSc1nc2ccccc2c(=O)n1-c1ccc(Cl)c(F)c1)c1nc(-c2ccccc2)cs1 | 4.16% (inactive)
O=C(CSc1nc2ccccc2c(=O)n1-c1c(Cl)cccc1Cl)Nc1nc(-c2ccccc2)cs1 | 1.54% (inactive)
N#Cc1ccc(-n2c(SCC(=O)Nc3nc(-c4ccccc4)cs3)nc3ccccc3c2=O)cc1 | 6.44% (inactive)
O=C(CSc1nc2cccc(F)c2c(=O)n1-c1ccc(Cl)c(Cl)c1)Nc1nc(-c2ccccc2)cs1 | 3.12% (inactive)

Tested on: West Nile virus infected cells, antiviral cytopathic protection
Test: as above
Settings: not given

EC50 [µM] | SMILES
11.4 | O=C(CSc1nc2c(F)cccc2c(=O)n1-c1cc(Cl)cc(Cl)c1)Nc1ccc2c(c1)CCC2
13 | O=C(CSc1nc2ccccc2c(=O)n1-c1c(Cl)cccc1Cl)Nc1ccc2c(c1)CCC2
13.7 | O=C(CSc1nc2ccccc2c(=O)n1-c1ccc(Cl)c(Br)c1)Nc1ccc2c(c1)CCC2
9.43 | O=C(CSc1nc2c(F)cccc2c(=O)n1-c1ccc(Cl)c(Cl)c1)Nc1ccc2c(c1)CCC2
6.66 | Cc1cc(-n2c(SCC(=O)Nc3ccc4c(c3)CCC4)nc3ccccc3c2=O)ccc1F
15.4 | O=C(CSc1nc2cccc(F)c2c(=O)n1-c1ccc(Cl)c(Cl)c1)Nc1ccc2c(c1)CCC2
26.8 | O=C(CSc1nc2ccccc2c(=O)n1-c1ccccc1)Nc1ccc2c(c1)CCC2
4.22 | Cc1cc(-n2c(SCC(=O)Nc3ccc4c(c3)CCC4)nc3ccccc3c2=O)ccc1Cl
24.4 | O=C(CSc1nc2ccccc2c(=O)n1-c1cc(Cl)c(F)cn1)Nc1ccc2c(c1)CCC2
8.28 | Cc1ccc(-n2c(SCC(=O)Nc3ccc4c(c3)CCC4)nc3ccccc3c2=O)cc1Br
11.4 | O=C(CSc1nc2ccccc2c(=O)n1-c1cc(F)cc(F)c1)Nc1ccc2c(c1)CCC2
17.3 | O=C(CSc1nc2c(F)cccc2c(=O)n1-c1ccccc1)Nc1ccc2c(c1)CCC2
18.5 | O=C(CSc1nc2ccccc2c(=O)n1-c1cc(F)c(F)cn1)Nc1ccc2c(c1)CCC2
